{"source": "patent US11576894B2", "about": "“Combination therapy for the treatment of diabetes” (Janssen Pharmaceutica N.V., priority 2009, dated 2023)", "key": {"Male ob/ob mice": {"system": "Male ob/ob mice", "assay": "In vivo ob/ob mouse study: 22 days oral q.d., glucose, OGTT, plasma insulin, body weight", "conditions": "for Body Weight / Fed Glucose / Plasma Insulin: 22 days; for Blood Glucose AUC during OGTT: OGTT day 18, glucose 0.5 g/kg", "protocol": "The mice were allowed ad libitum access to water and chow (commercially supplied diet). […] On the first morning, the mice were grouped as noted above and fed glucose. […] Body weight, food intake and fed blood glucose levels were measured weekly. An oral glucose tolerance test (OGTT) was conducted on the mice on day 18, after overnight fasting. […] Following completion of the study, final body weight and blood glucose level of were collected and the mice in each group was sacrificed to collect blood for biochemistry analysis, including fed blood glucose levels, fasted blood glucose levels, blood glucose levels during OGTT, plasma insulin and body weight change."}, "[1]": {"system": "Male C57BL/6 mice (high fat diet, Steptozotocin)", "assay": "In vivo mouse study: high fat diet / STZ C57BL/6 mice, 3 weeks oral treatment, fed and fasted glucose, OGTT", "conditions": "for Fed Glucose / Fed Glucose (% relative to the Vehicle): 3 weeks; for Blood Glucose AUC during OGTT / Blood Glucose AUC during OGTT (% relative to the Vehicle): glucose 2 g/kg; for Fasted Glucose / Fasted Glucose (% relative to the Vehicle): overnight fast from day 18", "description": "All the mice were then kept on a high fat diet for another 3 weeks. […] At the start of the pre-dose period, each mouse was assigned a predose number, which was indicated on its cage card. After assignment to dosage groups, each mouse was assigned a unique study identification number (which will be indicated on its cage card) and identified by permanent marker on its tail. Mice were housed 5 mice per cage in stainless steel cages. […] The temperature and humidity ranges will be monitored by a hygrothermograph. Mice were fed ad libitum (except where noted) with high-fat diet prepared in Southern University. Water was provided ad libitum by water bottles. The quarantine period was 5 days. The test compound or vehicle was administered orally by gavage. The dosage levels were chosen to represent a range of exposures with pharmacology effects. […] The mice were randomly divided into six testing group of 10 mice per group. Each group was treated for 3 weeks, via oral administration, with one of the following regimens: (a) vehicle; […] On Day 1 (the first day of dosing), dosing at all dose levels was initiated. All groups were then dosed for 20 additional days. The following pharmacological parameters were measured during and at the end of this study: […] The following morning, a basal fasted blood glucose level was determined. […] Food was replaced after the last time point of blood glucose measurement. The pharmacological significance of any findings was determined based on statistical analysis and historical control data. Statistical analyses were performed utilizing GraphPadPRISM."}, "[2]": {"conditions": "Metformin HCl 250 mg/kg P.O. q.d."}}, "note": "Counter-ions that a name gives are not always drawn."}
{"smiles": "Cc1ccc([C@@H]2O[C@H](CO)[C@@H](O)[C@H](O)[C@H]2O)cc1Cc1ccc(-c2ccc(F)cc2)s1", "note": "[Cmpd (I-X)]", "values": [{"measurement": "blood glucose levels (result in words)", "setting": "Male ob/ob mice; 10 mg/kg", "result": "significantly reduced"}, {"measurement": "glucose excursion during OGTT (result in words)", "setting": "Male ob/ob mice; 10 mg/kg", "result": "improved"}, {"measurement": "Fasted Glucose", "setting": "Male ob/ob mice; Cmpd (I-X) 1 mg/kg P.O. q.d.", "result": "159 ± 12", "unit": "mg/dL"}, {"measurement": "Body Weight", "setting": "Male ob/ob mice; Cmpd (I-X) 1 mg/kg P.O. q.d.", "result": "53 ± 0.8", "unit": "g"}, {"measurement": "Fed Glucose", "setting": "Male ob/ob mice; Cmpd (I-X) 1 mg/kg P.O. q.d.", "result": "312 ± 34", "unit": "mg/dL"}, {"measurement": "Plasma Insulin", "setting": "Male ob/ob mice; Cmpd (I-X) 1 mg/kg P.O. q.d.", "result": "46.3 ± 3.5", "unit": "ng/dL"}, {"measurement": "Blood Glucose AUC during OGTT", "setting": "Male ob/ob mice; Cmpd (I-X) 1 mg/kg P.O. q.d.", "result": "80 ± 4", "unit": "mg/dL * 2 h"}, {"measurement": "Fasted Glucose", "setting": "Male ob/ob mice; Cmpd (I-X) 10 mg/kg P.O. q.d.", "result": "86 ± 4", "unit": "mg/dL"}, {"measurement": "Body Weight", "setting": "Male ob/ob mice; Cmpd (I-X) 10 mg/kg P.O. q.d.", "result": "54 ± 0.8", "unit": "g"}, {"measurement": "Fed Glucose", "setting": "Male ob/ob mice; Cmpd (I-X) 10 mg/kg P.O. q.d.", "result": "254 ± 22", "unit": "mg/dL"}, {"measurement": "Plasma Insulin", "setting": "Male ob/ob mice; Cmpd (I-X) 10 mg/kg P.O. q.d.", "result": "44.0 ± 3.6", "unit": "ng/dL"}, {"measurement": "Blood Glucose AUC during OGTT", "setting": "Male ob/ob mice; Cmpd (I-X) 10 mg/kg P.O. q.d.", "result": "48 ± 3", "unit": "mg/dL * 2 h"}]}
{"smiles": "OC[C@H]1O[C@@H](c2ccc(Cl)c(Cc3ccc(-c4ccc(F)nc4)s3)c2)[C@H](O)[C@@H](O)[C@@H]1O", "note": "[Cmpd (I-Y)]", "values": [{"measurement": "Fed Glucose", "setting": "[1]; Cmpd (I-Y) 1 mg/kg oral", "result": "360.7 ± 15.7", "unit": "mg/dL"}, {"measurement": "Fed Glucose (% relative to the Vehicle)", "setting": "[1]; Cmpd (I-Y) 1 mg/kg oral", "result": "86% ± 4%"}, {"measurement": "Blood Glucose AUC during OGTT", "setting": "[1]; Cmpd (I-Y) 1 mg/kg oral", "result": "31562 ± 1447", "unit": "mg/dL * 2 h"}, {"measurement": "Blood Glucose AUC during OGTT (% relative to the Vehicle)", "setting": "[1]; Cmpd (I-Y) 1 mg/kg oral", "result": "85% ± 4%"}, {"measurement": "Fasted Glucose", "setting": "[1]; Cmpd (I-Y) 1 mg/kg oral", "result": "77.8 ± 4.9", "unit": "mg/dL"}, {"measurement": "Fasted Glucose (% relative to the Vehicle)", "setting": "[1]; Cmpd (I-Y) 1 mg/kg oral", "result": "89.4% ± 5.7%"}, {"measurement": "Fed Glucose", "setting": "[1]; Cmpd (I-Y) 10 mg/kg oral", "result": "290.5 ± 24.8", "unit": "mg/dL"}, {"measurement": "Fed Glucose (% relative to the Vehicle)", "setting": "[1]; Cmpd (I-Y) 10 mg/kg oral", "result": "69% ± 6%"}, {"measurement": "Blood Glucose AUC during OGTT", "setting": "[1]; Cmpd (I-Y) 10 mg/kg oral", "result": "25209 ± 894", "unit": "mg/dL * 2 h"}, {"measurement": "Blood Glucose AUC during OGTT (% relative to the Vehicle)", "setting": "[1]; Cmpd (I-Y) 10 mg/kg oral", "result": "68% ± 2%"}, {"measurement": "Fasted Glucose", "setting": "[1]; Cmpd (I-Y) 10 mg/kg oral", "result": "66.9 ± 3.1", "unit": "mg/dL"}, {"measurement": "Fasted Glucose (% relative to the Vehicle)", "setting": "[1]; Cmpd (I-Y) 10 mg/kg oral", "result": "76.9% ± 3.6%"}]}
{"smiles": "CN(C)C(=N)N=C(N)N", "note": "[Metformin HCl, metformin hydrochloride, reference compound]", "values": [{"measurement": "Fasted Glucose", "setting": "Male ob/ob mice; [2]", "result": "166 ± 16", "unit": "mg/dL"}, {"measurement": "Body Weight", "setting": "Male ob/ob mice; [2]", "result": "52 ± 0.9", "unit": "g"}, {"measurement": "Fed Glucose", "setting": "Male ob/ob mice; [2]", "result": "371 ± 35", "unit": "mg/dL"}, {"measurement": "Plasma Insulin", "setting": "Male ob/ob mice; [2]", "result": "48.4 ± 2.0", "unit": "ng/dL"}, {"measurement": "Blood Glucose AUC during OGTT", "setting": "Male ob/ob mice; [2]", "result": "91 ± 9", "unit": "mg/dL * 2 h"}]}
{"smiles": "CN(C)C(=N)N=C(N)N", "note": "[Metformin, reference compound]", "values": [{"measurement": "effect on blood glucose control (result in words)", "setting": "Male ob/ob mice; 250 mg/kg", "result": "did not have an effect"}, {"measurement": "Fed Glucose", "setting": "[1]; Metformin 500 mg/kg oral", "result": "345.4 ± 28.4", "unit": "mg/dL"}, {"measurement": "Fed Glucose (% relative to the Vehicle)", "setting": "[1]; Metformin 500 mg/kg oral", "result": "82% ± 7%"}, {"measurement": "Blood Glucose AUC during OGTT", "setting": "[1]; Metformin 500 mg/kg oral", "result": "34023 ± 1618", "unit": "mg/dL * 2 h"}, {"measurement": "Blood Glucose AUC during OGTT (% relative to the Vehicle)", "setting": "[1]; Metformin 500 mg/kg oral", "result": "92% ± 4%"}, {"measurement": "Fasted Glucose", "setting": "[1]; Metformin 500 mg/kg oral", "result": "74.7 ± 3.8", "unit": "mg/dL"}, {"measurement": "Fasted Glucose (% relative to the Vehicle)", "setting": "[1]; Metformin 500 mg/kg oral", "result": "85.9% ± 4.4%"}]}
